Patent publication US9957274B2, “Indane inhibitors of EED and methods of their use” (AbbVie Inc., priority 2016, dated 2018)
Like-named read-outs stand apart in the source and are kept apart here.

Assays:
[1] = test system: Pfeiffer cells; assay: CTG cell viability assay (CellTiter-Glo); format: cell-based; conditions: Homo sapiens, 240 h
Procedure: 1,000 cells were plated into each well of 96-well Corning CellBing cell culture plates and incubated overnight at 37° C. in a humidified CO2 incubator. […] The cell culture plates were then incubated for 10 more days. CTG cell viability assay was performed on the cell culture samples by using CellTiter-Glo® Luminescent Cell Viability Assay Kit (Promega).

[2] = test system: H3K27me3 in G401 cells; assay: H3K27me3 AlphaLISA assay in G401 cells; format: cell-based; conditions: Homo sapiens, G-401, 144 h, 6 days with compound
Procedure: G401 cells (ATCC catalog # CRL-1441) were maintained in McCoy's 5a medium (ATCC) supplemented with 10% heat-inactivated FBS (HyClone) at 37° C. in a humidified CO2 incubator. OCILY19 cells (DSMZ catalog #ACC 528) were maintained in IMDM (Invitrogen) supplemented with 10% human serum (Sigma) at 37° C. in a humidified CO2 incubator. 5,000 cells were plated into each well of 96-well Corning CellBing cell culture plates and incubated overnight at 37° C. in a humidified CO2 incubator. […] The cell culture plates were then incubated for 6 more days. H3K27me3 AlphaLISA assay was performed on the cell culture samples by using AlphaLISAR® H3K27me3 Cellular Detection Kit (PerkinElmer) and 96-well white half-area plates (PerkinElmer).

[3] = test system: H3K27me3 in OCILY19 cells; assay: H3K27me3 AlphaLISA assay in OCILY19 cells; format: cell-based; conditions: Homo sapiens, OCI-LY19, 144 h, 6 days with compound, read-out: OCILY-19 IC50
Procedure: 5,000 cells were plated into each well of 96-well Corning CellBing cell culture plates and incubated overnight at 37° C. in a humidified CO2 incubator. […] The cell culture plates were then incubated for 6 more days. H3K27me3 AlphaLISA assay was performed on the cell culture samples by using AlphaLISAR® H3K27me3 Cellular Detection Kit (PerkinElmer) and 96-well white half-area plates (PerkinElmer).

[4] = target: EED (Homo sapiens, UniProt O75530); assay: EED TR-FRET Binding Assay (modified LanthaScreen competition assay)
How it was run: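 Competition binding in a modified LanthaScreen format, in 20 mM Tris-HCl pH 7.5, 200 mM NaCl, 0.01% Tween-20, 10 uM DTT and 0.05% BSA. Reactions ran 1 hour at 25° C before TR-FRET detection.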

[5] = Pfeiffer, read-out: Cell Proliferation IC50 (uM)
[6] = Pfeiffer cells, 10 days with compound, CellTiter-Glo, read-out: Cell Proliferation IC50

Sequence of EED (O75530 whole entry): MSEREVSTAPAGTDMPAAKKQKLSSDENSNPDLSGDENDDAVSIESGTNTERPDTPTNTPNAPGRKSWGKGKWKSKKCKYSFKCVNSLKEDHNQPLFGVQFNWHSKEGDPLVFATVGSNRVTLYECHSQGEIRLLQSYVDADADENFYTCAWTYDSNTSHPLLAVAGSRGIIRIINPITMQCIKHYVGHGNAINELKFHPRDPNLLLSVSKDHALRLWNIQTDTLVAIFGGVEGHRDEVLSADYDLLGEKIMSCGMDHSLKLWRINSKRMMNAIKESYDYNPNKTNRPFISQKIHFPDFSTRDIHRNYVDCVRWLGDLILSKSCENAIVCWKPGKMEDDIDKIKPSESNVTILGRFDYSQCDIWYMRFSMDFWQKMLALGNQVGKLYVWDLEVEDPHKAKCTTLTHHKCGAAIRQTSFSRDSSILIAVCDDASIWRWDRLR

SMILES: CN(C)[C@H]1CN(C2CCc3cccc(F)c32)C[C@@H]1c1ccc(N2CCN(S(C)(=O)=O)CC2)cc1 (mixture of isomers) [Example 1, (3R,4S)-1-(7-fluoro-2,3-dihydro-1H-inden-1-yl)-4-{4-[4-(methanesulfonyl)piperazin-1-yl]phenyl}-N,N-dimethylpyrrolidin-3-amine]
- IC50 [1, 5]: 0.0725 µM
- IC50 [2]: 55.5 nM
- IC50 [3]: 62.1 nM

SMILES: CN(C)[C@H]1CN(C2CCc3cccc(F)c32)C[C@@H]1c1ccc(N2CCN(S(C)(=O)=O)CC2)cc1 (mixture of isomers) [Example 2, rac-(3R,4S)-1-(7-fluoro-2,3-dihydro-1H-inden-1-yl)-4-{4-[4-(methanesulfonyl)piperazin-1-yl]phenyl}-N,N-dimethylpyrrolidin-3-amine]
- IC50 [1, 5]: 0.126 µM
- IC50 [2]: 99.2 nM
- IC50 [3]: 140 nM

SMILES: CN1CCN(c2ccc([C@H]3CN(C4CCc5cccc(F)c54)C[C@@H]3N(C)C)cc2)CC1=O (mixture of isomers) [Example 56, rac-4-{4-[(3S,4R)-4-(dimethylamino)-1-(7-fluoro-2,3-dihydro-1H-inden-1-yl)pyrrolidin-3-yl]phenyl}-1-methylpiperazin-2-one]
- IC50 [1, 6]: 0.145 µM
- IC50 [4]: 1.39 nM
- IC50 [3]: 556 nM

SMILES: Cc1cc([C@H]2CN(C3CCc4cccc(F)c43)C[C@@H]2N(C)C)ccc1N1CCN(C)C(=O)C1 (mixture of isomers) [Example 58, rac-4-{4-[(3S,4R)-4-(dimethylamino)-1-(7-fluoro-2,3-dihydro-1H-inden-1-yl)pyrrolidin-3-yl]-2-methylphenyl}-1-methylpiperazin-2-one]
- IC50 [1, 6]: 0.314 µM
- IC50 [4]: 1.67 nM
- IC50 [3]: 376 nM

SMILES: CN(C)C(=O)C(=O)N1CCN(c2ccc([C@@H]3CN(C4CCc5cccc(F)c54)C[C@H]3N(C)C)cc2)CC1 (mixture of isomers) [Example 59, rac-2-(4-{4-[(3R,4S)-4-(dimethylamino)-1-(7-fluoro-2,3-dihydro-1H-inden-1-yl)pyrrolidin-3-yl]phenyl}piperazin-1-yl)-N,N-dimethyl-2-oxoacetamide]
- IC50 [1, 6]: 0.127 µM
- IC50 [4]: 1.07 nM
- IC50 [3]: 163 nM

SMILES: CN1CCN(c2ccc([C@H]3CN(C4CCc5cccc(F)c54)C[C@@H]3N(C)C)cc2)CC1 (mixture of isomers) [Example 61, rac-(3R,4S)-1-(7-fluoro-2,3-dihydro-1H-inden-1-yl)-N,N-dimethyl-4-[4-(4-methylpiperazin-1-yl)phenyl]pyrrolidin-3-amine]
- IC50 [1, 6]: 0.204 µM
- IC50 [4]: 1.14 nM
- IC50 [3]: 804 nM

SMILES: CCS(=O)(=O)N1CCN(c2ccc([C@H]3CN(C4CCc5cccc(F)c54)C[C@@H]3N(C)C)cc2C)CC1 (mixture of isomers) [Example 62, rac-(3R,4S)-4-{4-[4-(ethanesulfonyl)piperazin-1-yl]-3-methylphenyl}-1-(7-fluoro-2,3-dihydro-1H-inden-1-yl)-N,N-dimethylpyrrolidin-3-amine]
- IC50 [1, 6]: 0.429 µM
- IC50 [4]: 1.35 nM
- IC50 [3]: 282 nM

SMILES: CN(C)[C@H]1CN(C2CCc3cccc(F)c32)C[C@@H]1c1ccc(N2CCN(C3CC3)CC2)cc1 (mixture of isomers) [Example 64, rac-(3R,4S)-4-[4-(4-cyclopropylpiperazin-1-yl)phenyl]-1-(7-fluoro-2,3-dihydro-1H-inden-1-yl)-N,N-dimethylpyrrolidin-3-amine]
- IC50 [1, 6]: 0.166 µM
- IC50 [4]: 0.835 nM
- IC50 [3]: 334 nM

SMILES: CN(C)[C@@H]1CN(C2CCc3cccc(F)c32)C[C@H]1c1ccc(N2CCN(S(=O)(=O)c3cn(C)cn3)CC2)cc1 (mixture of isomers) [Example 73, rac-(3S,4R)-1-(7-fluoro-2,3-dihydro-1H-inden-1-yl)-N,N-dimethyl-4-{4-[4-(1-methyl-1H-imidazole-4-sulfonyl)piperazin-1-yl]phenyl}pyrrolidin-3-amine]
- IC50 [1, 6]: 0.0995 µM
- IC50 [4]: 0.825 nM
- IC50 [3]: 113 nM

SMILES: CN1CCN(C(=O)c2cccc3c([C@H]4CN(C5CCc6cccc(F)c65)C[C@@H]4N(C)C)cn(C)c23)CC1=O (mixture of isomers) [Example 125, rac-4-{3-[(3S,4R)-4-(dimethylamino)-1-(7-fluoro-2,3-dihydro-1H-inden-1-yl)pyrrolidin-3-yl]-1-methyl-1H-indole-7-carbonyl}-1-methylpiperazin-2-one]
- IC50 [1, 6]: 0.268 µM
- IC50 [4]: 1.07 nM
- IC50 [3]: 203 nM

SMILES: CN(C)[C@H]1CN(C2CCc3cccc(F)c32)C[C@@H]1c1cn(C)c2c(C(=O)N3CCN(S(C)(=O)=O)CC3)cccc12 (mixture of isomers) [Example 126, rac-{3-[(3S,4R)-4-(dimethylamino)-1-(7-fluoro-2,3-dihydro-1H-inden-1-yl)pyrrolidin-3-yl]-1-methyl-1H-indol-7-yl}[4-(methanesulfonyl)piperazin-1-yl]methanone]
- IC50 [1, 6]: 0.329 µM
- IC50 [4]: 2.14 nM
- IC50 [3]: 220 nM

SMILES: CC(=O)N1CCN(C(=O)c2cccc3c([C@H]4CN(C5CCc6cccc(F)c65)C[C@@H]4N(C)C)cn(C)c23)CC1 (mixture of isomers) [Example 128, rac-1-(4-{3-[(3S,4R)-4-(dimethylamino)-1-(7-fluoro-2,3-dihydro-1H-inden-1-yl)pyrrolidin-3-yl]-1-methyl-1H-indole-7-carbonyl}piperazin-1-yl)ethan-1-one]
- IC50 [1, 6]: 0.194 µM
- IC50 [4]: 1.03 nM
- IC50 [3]: 241 nM

SMILES: CCS(=O)(=O)N1CCN(C(=O)c2cccc3c([C@H]4CN(C5CCc6cccc(F)c65)C[C@@H]4N(C)C)cn(C)c23)CC1 (mixture of isomers) [Example 130, rac-{3-[(3S,4R)-4-(dimethylamino)-1-(7-fluoro-2,3-dihydro-1H-inden-1-yl)pyrrolidin-3-yl]-1-methyl-1H-indol-7-yl}[4-(ethanesulfonyl)piperazin-1-yl]methanone]
- IC50 [1, 6]: 0.311 µM
- IC50 [4]: 1.05 nM
- IC50 [3]: 306 nM

SMILES: CN(C)[C@@H]1CN(C2CCc3cccc(F)c32)C[C@H]1c1ccc(N2CCN(C(=O)CNS(C)(=O)=O)CC2)nc1 (mixture of isomers) [Example 155, rac-N-[2-(4-{5-[(3R,4S)-4-(dimethylamino)-1-(7-fluoro-2,3-dihydro-1H-inden-1-yl)pyrrolidin-3-yl]pyridin-2-yl}piperazin-1-yl)-2-oxoethyl]methanesulfonamide]
- IC50 [1, 6]: 0.395 µM
- IC50 [4]: 1.75 nM
- IC50 [3]: 3220 nM

SMILES: CN(C)[C@H]1CN(C2CCc3cccc(F)c32)C[C@@H]1C1CCN(c2cnc(C(N)=O)cn2)CC1 (mixture of isomers) [Example 163, rac-5-{4-[(3S,4R)-4-(dimethylamino)-1-(7-fluoro-2,3-dihydro-1H-inden-1-yl)pyrrolidin-3-yl]piperidin-1-yl}pyrazine-2-carboxamide]
- IC50 [1, 6]: 0.271 µM
- IC50 [4]: 0.638 nM
- IC50 [3]: 583 nM

SMILES: CN(C)[C@H]1CN([C@H]2CCc3cccc(F)c32)C[C@@H]1c1ccc(S(C)(=O)=O)cc1 [Example 11, (3R,4S)-1-[(1S)-7-fluoro-2,3-dihydro-1H-inden-1-yl]-4-[4-(methanesulfonyl)phenyl]-N,N-dimethylpyrrolidin-3-amine]
- IC50 [1, 6]: 0.301 µM
- IC50 [4]: 23.1 nM
- IC50 [3]: 171 nM

SMILES: CC(=O)N1CCN(c2ccc([C@H]3CN(C4CCc5cccc(F)c54)C[C@@H]3N(C)C)cc2)CC1 (stereo partly drawn) [Example 43, 1-(4-{4-[(3S,4R)-4-(dimethylamino)-1-(7-fluoro-2,3-dihydro-1H-inden-1-yl)pyrrolidin-3-yl]phenyl}piperazin-1-yl)ethan-1-one]
- IC50 [2]: 32.6 nM
- IC50 [4]: 0.297 nM
- IC50 [3]: 50.4 nM

SMILES: CN(C)[C@H]1CN([C@H]2CCc3cccc(F)c32)C[C@@H]1c1cn(C)c2ccccc12 [Example 77, (3R,4S)-1-[(1S)-7-fluoro-2,3-dihydro-1H-inden-1-yl]-N,N-dimethyl-4-(1-methyl-1H-indol-3-yl)pyrrolidin-3-amine]
- IC50 [1, 5]: 1.07 µM
- IC50 ([4]; read-out: TR-FRET Binding): 1.03 nM
- IC50 [3]: 655 nM

SMILES: CN(C)[C@H]1CN(C2CCc3ccccc32)C[C@@H]1c1cn(C)c2ccccc12 (stereo partly drawn) [Example 88, (3R,4S)-1-(2,3-dihydro-1H-inden-1-yl)-N,N-dimethyl-4-(1-methyl-1H-indol-3-yl)pyrrolidin-3-amine]
- IC50 [1, 5]: 3.55 µM
- IC50 [4]: 26.2 nM
- IC50 [3]: 2440 nM

SMILES: CN(C)[C@H]1CN(C2CCc3cccc(Cl)c32)C[C@@H]1c1cn(C)c2ccccc12 (stereo partly drawn) [Example 89, (3R,4S)-1-(7-chloro-2,3-dihydro-1H-inden-1-yl)-N,N-dimethyl-4-(1-methyl-1H-indol-3-yl)pyrrolidin-3-amine]
- IC50 [1, 6]: 6.37 µM
- IC50 [4]: 31 nM
- IC50 [3]: 4350 nM
